Results reported in ChEMBL document CHEMBL5338704, “Discovery of novel phenylhydrazone-based oxindole-thiolazoles as potent antibacterial agents toward Pseudomonas aeruginosa” (Eur J Med Chem, 2022).
Converted amounts (≈) assume the structure as drawn. The source made the active and inactive calls. The rule behind the calls is not given here.

Experiments:
Staphylococcus aureus [1] = assay: Antibacterial activity against Staphylococcus aureus ATCC 29213 assessed as inhibition of bacterial growth by micro-broth dilution assay; type: functional
DNA [2] = assay: Binding affinity to Pseudomonas aeruginosa DNA; type: nucleic-acid assay
Cell membrane [3] = assay: Induction of inner membrane damage in Pseudomonas aeruginosa incubated for 6 hrs by Calcein AM dye based fluorescence based assay; type: subcellular
Pseudomonas aeruginosa [4] = assay: Inhibition of biofilm formation in Pseudomonas aeruginosa assessed as removal of mature biofilm by crystal violet staining based analysis; type: functional, organism-based; conditions: dose 0.5-8 µg/ml
[5] = Hemolytic activity in RBC (unknown origin) assessed as hemolysis; type: toxicity, cell-based, Erythrocyte; conditions: red blood cells (erythrocytes)
Enterococcus faecalis = assay: Antibacterial activity against Enterococcus faecalis assessed as inhibition of bacterial growth by micro-broth dilution assay; type: functional
Pseudomonas aeruginosa [6] = assay: Potency index, ratio of norfloxacin MIC to test compound MIC for antibacterial activity against Pseudomonas aeruginosa assessed as inhibition of bacterial growth by micro-broth dilution assay; type: functional
Staphylococcus aureus [7] = assay: Antibacterial activity against Staphylococcus aureus assessed as inhibition of bacterial growth by micro-broth dilution assay; type: functional
Cell membrane [8] = assay: Induction of cytoplasmic membrane depolarization in Pseudomonas aeruginosa assessed as increase in fluorescence intensity MIC by DiSC35 dye based fluorescence analysis; type: subcellular
Klebsiella pneumoniae = assay: Antibacterial activity against Klebsiella pneumoniae assessed as inhibition of bacterial growth by micro-broth dilution assay; type: functional
Cell membrane [9] = assay: Induction of outer membrane permeabilization in Pseudomonas aeruginosa assessed as increase in fluorescence intensity by NPN-dye based fluorescence analysis; type: subcellular; conditions: dose 0.5-8 µg/ml
Staphylococcus aureus [10] = assay: Antibacterial activity against methicillin resistant Staphylococcus aureus assessed as inhibition of bacterial growth by micro-broth dilution assay; type: functional
[11] = Selectivity index, ratio of HC50 for hemolytic activity in RBC (unknown origin) assessed as hemolysis to MIC for antibacterial activity against Pseudomonas aeruginosa assessed as inhibition of bacterial growth by micro-broth dilution assay; type: toxicity; conditions: red blood cells (erythrocytes)
Pseudomonas aeruginosa [12] = assay: Antibacterial activity against Pseudomonas aeruginosa assessed as inhibition of bacterial growth by micro-broth dilution assay; type: functional
Cell membrane [13] = assay: Induction of inner membrane damage in Pseudomonas aeruginosa assessed as increase in red fluorescence cells at 0.5 to 8 times MIC incubated for 6 hrs by Calcein AM dye based fluorescence based assay; type: subcellular
Escherichia coli [14] = assay: Antibacterial activity against Escherichia coli ATCC 25922 assessed as inhibition of bacterial growth by micro-broth dilution assay; type: functional
Cell membrane [15] = assay: Induction of cytoplasmic membrane depolarization in Pseudomonas aeruginosa assessed as increase in fluorescence intensity at 0.5 to 4 times MIC by DiSC35 dye based fluorescence analysis; type: subcellular; conditions: time 30.0 min, TDE = time-dependent effect
Pseudomonas aeruginosa [16] = assay: Antibacterial activity against Pseudomonas aeruginosa ATCC 27853 assessed as inhibition of bacterial growth at 1 times MIC measured upto 14 hrs; type: functional, organism-based
Pseudomonas aeruginosa [17] = assay: Antibacterial activity against Pseudomonas aeruginosa ATCC 27853 assessed as inhibition of bacterial growth by micro-broth dilution assay; type: functional
Escherichia coli [18] = assay: Antibacterial activity against Escherichia coli assessed as inhibition of bacterial growth by micro-broth dilution assay; type: functional
Cell membrane [19] = assay: Induction of outer membrane permeabilization in Pseudomonas aeruginosa assessed as increase in fluorescence intensity at 0.5 to 8 microg/ml by NPN-dye based fluorescence analysis; conditions: dose 0.5-8 µg/ml
DNA [20] = assay: Binding affinity to Pseudomonas aeruginosa DNA assessed as reduction in acridine orange-DNA complex formation by competitive binding assay; type: nucleic-acid assay
Pseudomonas aeruginosa [21] = assay: Induction of intracellular ROS accumulation in Pseudomonas aeruginosa assessed increase in fluorescence intensity; type: functional, organism-based
Acinetobacter baumannii = assay: Antibacterial activity against Acinetobacter baumannii assessed as inhibition of bacterial growth by micro-broth dilution assay; type: functional
Cell membrane [22] = assay: Induction of cell membrane damage in Pseudomonas aeruginosa assessed as increase in nucleic acid leakage at 0.5 to 8 times MIC; type: subcellular
Pseudomonas aeruginosa [23] = assay: Inhibition of biofilm formation in Pseudomonas aeruginosa by crystal violet staining based analysis; type: functional, organism-based; conditions: dose 0.5-8 µg/ml
Pseudomonas aeruginosa [24] = assay: Antibacterial activity against Pseudomonas aeruginosa ATCC 27853 assessed as inhibition of bacterial growth measured after 6 hrs; type: functional, organism-based
Pseudomonas aeruginosa [25] = assay: Antibacterial activity against Pseudomonas aeruginosa assessed as reduction in LDH activity at 0.5 to 8 times MIC; type: functional, organism-based
Pseudomonas aeruginosa [26] = assay: Antibacterial activity against Pseudomonas aeruginosa assessed as […] inactivation at 0.5 to 8 times MIC by alamar blue staining based analysis; type: functional, organism-based
Cell membrane [27] = assay: Induction of inner membrane damage in Pseudomonas aeruginosa assessed as decrease in green fluorescence cells at 0.5 to 8 times MIC incubated for 6 hrs by Calcein AM dye based fluorescence based assay; type: subcellular
Pseudomonas aeruginosa [28] = assay: Induction of oxidative stress in Pseudomonas aeruginosa assessed as decrease in GSH activity at 0.5 to 8 times MIC by Ellman's assay; type: functional, organism-based
Pseudomonas aeruginosa [29] = assay: Antibacterial activity against Pseudomonas aeruginosa assessed as reduction in LDH activity at 8 times MIC; type: functional; set-up: scale not given: the % may be the effect or the level left
Pseudomonas aeruginosa [30] = assay: Induction of resistance development in Pseudomonas aeruginosa ATCC 27853 treated over 30 serial passages; type: functional, organism-based
Pseudomonas aeruginosa [31] = assay: Induction of resistance development in Pseudomonas aeruginosa ATCC 27853 assessed as fold increase in MIC treated over 30 serial passages; type: functional
Cell membrane [32] = assay: Induction of cell membrane damage in Pseudomonas aeruginosa assessed as increase in protein leakage; type: subcellular
Pseudomonas aeruginosa [33] = assay: Inhibition of biofilm formation in Pseudomonas aeruginosa at 0.5 to 8 microg/ml by crystal violet staining based analysis; type: functional; conditions: dose 0.5-8 µg/ml; at 0.5 to 8 µg/mL
Staphylococcus aureus [34] = assay: Antibacterial activity against Staphylococcus aureus ATCC 25923 assessed as inhibition of bacterial growth by micro-broth dilution assay; type: functional

In the case of Cn1ccnc1SCC(O)CN1C(=O)/C(=N\Nc2ccc(C(=O)O)cc2)c2ccccc21 (configuration not stated), the MIC (Staphylococcus aureus [1]) is reported as 16 µg/mL (≈ 35.4 µM), the Activity (DNA [2]) is reported as “Active” and the Activity (Cell membrane [3]) is reported as “Dose-Dependent Effect”. For the same molecule, the inhibition (Pseudomonas aeruginosa [4]) was “Dose-Dependent Effect”, the HC50 [5] was > 512 µg/mL and the MIC (Enterococcus faecalis) was 4 µg/mL (≈ 8.86 µM). For the same molecule, the Ratio (Pseudomonas aeruginosa [6]) was 8, the MIC (Staphylococcus aureus [7]) was 8 µg/mL (≈ 17.7 µM) and the Activity (Cell membrane [8]) was “Dose-Dependent Effect”. The MIC (Klebsiella pneumoniae) was 2 µg/mL (≈ 4.43 µM), the Activity (Cell membrane [9]) was “Dose-Dependent Effect” and the MIC (Staphylococcus aureus [10]) was 8 µg/mL (≈ 17.7 µM). For the same molecule, the selectivity ratio [11] was > 512, the MIC (Pseudomonas aeruginosa [12]) was 1 µg/mL (≈ 2.21 µM) and the Activity (Cell membrane [13]) was “Active”. The MIC (Escherichia coli [14]) was 4 µg/mL (≈ 8.86 µM), the Activity (Cell membrane [15]) was “Tde” and the Activity (Pseudomonas aeruginosa [16]) was “Active”. The MIC (Pseudomonas aeruginosa [17]) was 8 µg/mL (≈ 17.7 µM), the MIC (Escherichia coli [18]) was 32 µg/mL (≈ 70.9 µM) and the Activity (Cell membrane [19]) was “Active”. The Activity (DNA [20]) was “Active”, the Activity (Pseudomonas aeruginosa [21]) was “Dose-Dependent Effect” and the MIC (Acinetobacter baumannii) was 32 µg/mL (≈ 70.9 µM). The Activity (Cell membrane [22]) was “Active”, the inhibition (Pseudomonas aeruginosa [23]) was “Dose-Dependent Effect” and the Activity (Pseudomonas aeruginosa [24]) was “Active”. For the same molecule, the Activity (Pseudomonas aeruginosa [25]) was “Active”, the Activity (Pseudomonas aeruginosa [26]) was “Active” and the Activity (Cell membrane [27]) was “Active”. The Activity (Pseudomonas aeruginosa [28]) was “Active”, the Activity (Pseudomonas aeruginosa [29]) was <15% and the Activity (Pseudomonas aeruginosa [30]) was “Active”. For the same molecule, the “fold change (FC)” value (Pseudomonas aeruginosa [31]) was 32, the Activity (Cell membrane [32]) was “Dose-Dependent Effect” and the “inhibition (INH)” value (Pseudomonas aeruginosa [33]) was 15%. The MIC (Staphylococcus aureus [34]) was 8 µg/mL (≈ 17.7 µM).
